{"source": "paper PMC10348910", "about": "“Epigenetic reprogramming of cell cycle genes by ACK1 promotes breast cancer resistance to CDK4/6 inhibitor” (Oncogene, 2023)", "key": {"CXCR4 mRNA": {"tested_on": "CXCR4 mRNA", "assay": "qRT-PCR of CXCR4 in MDA-MB-231 cells", "assay_type": "cell-based", "method": "Fig. 7 ACK1 inhibitor overcomes palbociclib-resistant breast cancer growth and metastasis. A 3 × 10^6 MDA-MB-468 cells were injected in the 4th inguinal mammary fat pad of female SCID mice. Once the tumors were palpable, the mice were treated with either vehicle (Captisol; n = 7), Palbociclib at 80 mg/kg (n = 6), or (R)-9b at 36 mg/Kg (n = 6) orally. In addition, mice were injected with (R)-9b at 24 mg/Kg (n = 7) subcutaneously. Mice were treated five times a week, for 22 days. B, C The tumors were harvested and photographed, and the weights were recorded. D Vehicle or (R)-9b treated breast cancer cells were subjected to ChIP using pY88-H4 antibody, followed by qPCR for CXCR4 gene. E CXCR4 mRNA transcript levels in vehicle or (R)-9b treated MDA-MB-231 cells. 18S rRNA was used as housekeeping gene. F MDA-MB-231 cells were transfected with ACK1 or scrambled siRNA, followed by qRT-PCR to determine CXCR4 mRNA transcript levels. […] H Graphical quantitation of lung metastatic deposit. […] The metastases were assessed using IVIS. […] For (A, C–F, I), p values were calculated using unpaired two-tailed Student’s t test.\n(§1) Real-time quantitative PCR analyses were performed using the ABI PRISM 7900HT Sequence Detection System (Applied Biosystems) as described earlier. […] Data were analyzed using SDS software version 2.2.2 and exported into an Excel spreadsheet. […]"}, "[1]": {"tested_on": "normal breast cells, MCF10a", "assay": "cell cycle analysis, propidium iodide flow cytometry", "assay_type": "cell-based", "details": "48 h", "method": "(§2) A–F Breast cancer cells were treated with either vehicle or (R)-9b for 48 h; cells were harvested and processed for cell cycle analysis using propidium iodide staining, followed by flow cytometry. G BT549 and H MDA-MB-468 cells were treated with varying drug concentrations of palbociclib or (R)-9b for 96 h and the cell viability assessed using trypan blue exclusion method. I BT549, and J MDA-MB-468 cells were treated with 1 µM palbociclib or (R)-9b for 48 h and subjected to cell cycle analysis using propidium iodide staining, followed by flow-cytometry. Palbociclib-resistant MDA-MB-231 (K) and HCC-1395 (L) were generated and treated with varying drug concentrations of palbociclib or (R)-9b for 96 h and the cell viability assessed using trypan blue exclusion method.\n(§3) For proliferation assay, 5 × 10^4 cells were plated in 6-well plate and treated with either vehicle (DMSO) or varying concentrations of (R)-9b or palbociclib in complete media for 96 h and number of viable cells were counted by trypan blue exclusion assay. Breast cancer cell lines were treated with vehicle or varying concentrations of (R)-9b for 72 h. The cells were harvested, washed 2 times with PBS and incubated with 3 ul of Annexin V-FITC antibody according to the manufacturers protocol (BD Biosciences). Five µl Propidium iodide was used to stain necrotic cells. The cells were acquired using the BD FACSCalibur machine (BD Biosciences) and data was analyzed using FlowJo software. Cell cycle analysis was performed as mentioned earlier. Briefly, vehicle or (R)-9b (48 h) treated cells were harvested by trypsinization, washed 2 times with PBS, and fixed using chilled 70% Ethanol for 1 h, followed by 2 washes with PBS. The cell pellets were treated with 50 µl RNase A (100 µg/ml; Sigma) for 15 min at 37 °C and Propidium Iodide (PI; 50 µg/ml, Sigma) was added to these cells, followed by acquisition using BD FACS Canto-II or FACSCalibur machines. The data were analyzed using FlowJo software."}, "breast cancer cell lines": {"tested_on": "breast cancer cell lines", "assay": "cell cycle analysis, propidium iodide flow cytometry", "assay_type": "cell-based", "details": "48 h", "method": "as §2, §3"}, "[2]": {"tested_on": "78 targets (cell surface receptors, ion channels, kinases, nuclear hormone receptors, GPCRs and other relevant enzymes)", "assay": "DiscoverX SAFETYscan pharmacological profiling (78 assays)", "excerpt": "We performed pharmacological profiling of (R)-9b, to identify undesirable off-target activity profile using DiscoverX SAFETYscan, which has a broad menu containing 78 assays, and provides functional data for cell surface receptors, ion channels, kinases, nuclear hormone receptors, GPCRs and other relevant enzymes, inhibition of which could cause significant toxicity in human clinical trials."}, "[3]": {"tested_on": "CCNB1, CCNB2 and CDC20 mRNA", "assay": "qRT-PCR of CCNB1, CCNB2 and CDC20 in breast cancer cells", "assay_type": "cell-based", "details": "MCF7, MDA-MB-453, SKBR3 and HCC-1395 cells; overnight", "method": "Fig. 2 ACK1 regulates breast cancer transcriptome, affecting genes implicated in cell cycle progression. A Chemical structure of (R)-9b. B Breast cancer cell lines were treated with either vehicle or (R)-9b overnight and cell lysates were subjected to immunoprecipitation using ACK1 antibody, followed by immunoblotting with pY284-ACK1 antibody. Lysates were also subjected to immunoblotting with total ACK1 and Actin antibodies, shown in the lower panels. […] C Breast cancer cell lines were treated with varying concentrations of (R)-9b for 96 h and the cell proliferation was measured using Trypan Blue exclusion method. D–H RNA from breast cancer cells treated with vehicle or varying concentrations of (R)-9b overnight, and were subjected to qRT-PCR using CCNB1, CCNB2 and CDC20 primers. Actin or 18S rRNA was used as housekeeping control. For (B), representative images of three independent experiments are shown. For (C), a four parameter, variable slope, non-linear regression curve was computed, representing three independent experiments. […]\nas §1"}, "CDK1, CDK2 and WEE1 mRNA": {"tested_on": "CDK1, CDK2 and WEE1 mRNA", "assay": "qRT-PCR of CDK1, CDK2 and WEE1", "assay_type": "cell-based", "details": "MCF-7 and MDA-MB-453; overnight", "method": "Real-time quantitative PCR analyses were performed using the ABI PRISM 7900HT Sequence Detection System (Applied Biosystems) as described earlier. Briefly, the PCR was carried out with SYBR Green PCR Master Mix (Applied Biosystems) using 2 µl of cDNA (or ChIP DNA) and the primers in a 20 µl final reaction mixture. Dissociation curves were generated for each plate to verify the integrity of the primers. Data were analyzed using SDS software version 2.2.2 and exported into an Excel spreadsheet. The 18S or Actin data were used for normalizing the gene values. The sequences for the primers are in Supplementary Table 12.\nSupplementary Figure S9: Effect of ACK1 inhibition on CDKs and WEE1.\nRNA from breast cancer cells treated with vehicle or varying concentrations of (R)-9b overnight were subjected to qRT-PCR using CDK1, CDK2 and WEE1 primers. 18S rRNA was used as housekeeping control. Data are represented as the mean ± SEM from 2 biologically independent experiments. *p<0.05, **p<0.01, ***p<0.001, unpaired two-tailed Student’s t-test."}}}
{"molecule": "CN1CCN(c2ccc(Nc3ncc(Cl)c(NC[C@H]4CCCO4)n3)cc2)CC1", "note": "[(R)-9b]", "values": [{"measurement": "CXCR4 transcription", "setting": "CXCR4 mRNA", "value": "inhibited CXCR4 transcription"}, {"measurement": "cell cycle effect", "setting": "[1]", "value": "no G2/M arrest"}, {"measurement": "cell cycle effect", "setting": "breast cancer cell lines; MDA-MB-453, MCF7, HCC-1395, SKBR3 and T47D", "value": "arrest in G2/M phase"}, {"measurement": "cell cycle effect", "setting": "breast cancer cell lines; palbociclib-resistant BT549 and MDA-MB-468 cells, 1 µM", "value": "G2/M cell cycle arrest"}, {"measurement": "off-target inhibition in SAFETYscan", "setting": "[2]", "value": "None of the 78 targets were inhibited significantly"}, {"measurement": "CCNB1, CCNB2 and CDC20 mRNA transcripts", "setting": "[3]", "value": "significant downregulation"}, {"measurement": "CDK1 and 2, and WEE1 expression", "setting": "CDK1, CDK2 and WEE1 mRNA", "value": "affected"}]}
